Experiment [1] deals with T1, Vascular endothelial growth factor receptor 2 (Homo sapiens, UniProt P35968). Kind of experiment: Inhibition of human VEGFR2 in presence of 1 uM ATP.
Experiment [2] concerns the target T1, Vascular endothelial growth factor receptor 2. Kind of experiment: Inhibition of human VEGFR2 in presence of 1 mM ATP.
Experiment [3] has as its target T2, Epidermal growth factor receptor (Homo sapiens, UniProt P00533). Kind of experiment: Inhibition of human EGFR in presence of 1 mM ATP.
In experiment [4] the target is T2, Epidermal growth factor receptor. Briefly: Inhibition of human EGFR in presence of 1 uM ATP.

Each structure is given as a SMILES string. Some results are limits rather than exact numbers.

T2 sequence (P00533 whole entry): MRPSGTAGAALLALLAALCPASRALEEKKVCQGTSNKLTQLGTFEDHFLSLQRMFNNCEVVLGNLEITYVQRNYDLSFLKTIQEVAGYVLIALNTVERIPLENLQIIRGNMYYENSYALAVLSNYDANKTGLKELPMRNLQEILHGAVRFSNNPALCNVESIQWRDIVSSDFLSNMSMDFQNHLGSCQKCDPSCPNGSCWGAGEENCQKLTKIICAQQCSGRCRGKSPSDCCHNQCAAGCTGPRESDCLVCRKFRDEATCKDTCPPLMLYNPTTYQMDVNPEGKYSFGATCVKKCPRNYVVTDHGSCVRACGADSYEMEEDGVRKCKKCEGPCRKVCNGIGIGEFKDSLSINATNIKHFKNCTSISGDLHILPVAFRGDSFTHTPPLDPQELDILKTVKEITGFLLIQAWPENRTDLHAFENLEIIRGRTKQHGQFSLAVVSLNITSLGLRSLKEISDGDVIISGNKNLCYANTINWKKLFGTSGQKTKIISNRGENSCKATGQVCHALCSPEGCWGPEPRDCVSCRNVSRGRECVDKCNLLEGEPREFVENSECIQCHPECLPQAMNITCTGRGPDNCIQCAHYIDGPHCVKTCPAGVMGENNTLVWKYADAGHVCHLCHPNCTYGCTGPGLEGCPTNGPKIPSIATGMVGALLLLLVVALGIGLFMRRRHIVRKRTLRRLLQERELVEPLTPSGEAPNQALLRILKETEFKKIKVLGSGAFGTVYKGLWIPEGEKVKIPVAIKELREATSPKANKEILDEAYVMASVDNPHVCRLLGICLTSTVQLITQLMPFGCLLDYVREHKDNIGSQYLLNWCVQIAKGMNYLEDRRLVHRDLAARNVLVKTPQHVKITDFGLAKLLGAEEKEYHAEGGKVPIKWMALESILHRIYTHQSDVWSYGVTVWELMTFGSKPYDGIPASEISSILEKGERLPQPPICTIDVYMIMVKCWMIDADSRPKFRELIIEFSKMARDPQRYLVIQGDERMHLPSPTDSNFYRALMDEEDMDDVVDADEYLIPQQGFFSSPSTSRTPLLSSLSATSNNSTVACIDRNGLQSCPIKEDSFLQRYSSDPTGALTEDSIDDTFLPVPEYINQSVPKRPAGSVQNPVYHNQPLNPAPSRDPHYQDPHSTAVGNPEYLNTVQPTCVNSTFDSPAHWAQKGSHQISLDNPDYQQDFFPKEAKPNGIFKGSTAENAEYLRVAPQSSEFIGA
T1 sequence (P35968 whole entry): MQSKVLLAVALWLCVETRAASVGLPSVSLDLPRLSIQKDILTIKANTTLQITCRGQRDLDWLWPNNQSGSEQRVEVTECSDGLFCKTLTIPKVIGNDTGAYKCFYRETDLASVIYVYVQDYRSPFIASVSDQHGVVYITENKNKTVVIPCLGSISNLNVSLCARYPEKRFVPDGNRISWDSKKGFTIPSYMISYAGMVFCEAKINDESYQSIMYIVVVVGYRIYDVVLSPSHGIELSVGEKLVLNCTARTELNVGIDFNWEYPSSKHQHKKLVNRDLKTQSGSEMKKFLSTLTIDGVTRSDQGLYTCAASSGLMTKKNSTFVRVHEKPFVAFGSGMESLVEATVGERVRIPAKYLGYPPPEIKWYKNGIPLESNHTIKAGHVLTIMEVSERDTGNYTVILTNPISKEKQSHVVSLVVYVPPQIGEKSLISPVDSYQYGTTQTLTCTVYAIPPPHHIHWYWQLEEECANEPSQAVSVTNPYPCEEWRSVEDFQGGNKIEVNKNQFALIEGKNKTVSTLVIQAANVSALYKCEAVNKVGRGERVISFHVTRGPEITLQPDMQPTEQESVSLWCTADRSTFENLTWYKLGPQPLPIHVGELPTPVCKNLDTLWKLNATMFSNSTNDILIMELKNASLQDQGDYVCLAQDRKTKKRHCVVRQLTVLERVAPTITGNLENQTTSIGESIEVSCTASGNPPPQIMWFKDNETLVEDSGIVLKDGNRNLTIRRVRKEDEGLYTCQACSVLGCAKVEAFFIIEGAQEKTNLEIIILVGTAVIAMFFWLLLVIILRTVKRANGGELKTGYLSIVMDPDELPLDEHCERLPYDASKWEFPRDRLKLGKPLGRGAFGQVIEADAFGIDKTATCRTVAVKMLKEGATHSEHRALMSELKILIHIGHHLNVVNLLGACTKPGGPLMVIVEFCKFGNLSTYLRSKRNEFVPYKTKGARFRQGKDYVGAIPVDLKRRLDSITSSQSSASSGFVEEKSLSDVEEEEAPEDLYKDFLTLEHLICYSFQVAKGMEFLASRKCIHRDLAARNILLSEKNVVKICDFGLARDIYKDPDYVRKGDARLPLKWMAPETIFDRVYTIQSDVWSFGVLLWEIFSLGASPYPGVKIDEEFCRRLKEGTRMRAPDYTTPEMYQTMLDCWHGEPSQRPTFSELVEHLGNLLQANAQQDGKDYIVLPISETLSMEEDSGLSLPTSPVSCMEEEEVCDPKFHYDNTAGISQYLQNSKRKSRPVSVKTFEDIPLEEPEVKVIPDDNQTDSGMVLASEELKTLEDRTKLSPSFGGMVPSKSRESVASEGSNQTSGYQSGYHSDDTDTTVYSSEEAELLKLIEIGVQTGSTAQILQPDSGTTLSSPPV

Take `CCOc1cc2ncnc(NC3=CC(=O)C(OCc4cccc(OC)c4)=CC3=O)c2cc1NC(=O)/C=C/CN(C)C`: the IC50 is 372 nM in experiment [1], 1280 nM in experiment [2], 347 nM in experiment [3] and 107 nM in experiment [4].

Turning to `CCOc1cc2ncnc(NC3=CC(=O)C(OCc4cccc(C)c4)=CC3=O)c2cc1NC(=O)/C=C/CN(C)C`, the concentration for half-maximal inhibition (IC50) was found to be 189 nM in experiment [1], 613 nM in experiment [2], 173 nM in experiment [3] and 24.9 nM in experiment [4].

For `CN(C)C/C=C/C(=O)Nc1ccc2ncnc(Nc3ccc(Br)cc3F)c2c1`, the IC50 in experiment [3] was 704 nM; in experiment [4] it was less than 10 nM.

Take `COCCOc1cc2ncnc(NC3=CC(=O)C(OCc4cccc(OC)c4)=CC3=O)c2cc1OC`: the IC50 in experiment [1] is 50.2 nM; in experiment [2] it was 250 nM; in experiment [3] it was more than 10000 nM; in experiment [4], 7710 nM.

With `COCCOc1cc2ncnc(NC3=CC(=O)C(OCc4ccccc4)=CC3=O)c2cc1OC`, the concentration for half-maximal inhibition (IC50) was 53.7 nM in experiment [1], 140 nM in experiment [2], more than 10000 nM in experiment [3] and more than 10000 nM in experiment [4].

For `CCOc1cc2ncnc(NC3=CC(=O)C(OC(CF)CF)=CC3=O)c2cc1NC(=O)/C=C/CN(C)C`, the IC50 in experiment [1] is 109 nM; in experiment [2], 303 nM; in experiment [3], 2090 nM; in experiment [4], 283 nM.

As for `CCOc1cc2ncnc(NC3=CC(=O)C(OCc4ccc(F)c(F)c4)=CC3=O)c2cc1NC(=O)/C=C/CN(C)C`, the concentration for half-maximal inhibition (IC50) in experiment [1] is 112 nM; in experiment [2], 550 nM; in experiment [3], 894 nM; in experiment [4], 167 nM.

As to `CCOc1cc2ncnc(NC3=CC(=O)C(OCc4ccccc4)=CC3=O)c2cc1NC(=O)/C=C/CN(C)C`, the IC50 was determined as 102 nM in experiment [1], 783 nM in experiment [2], 216 nM in experiment [3] and 18.7 nM in experiment [4].

With `CCOc1cc2ncnc(NC3=CC(=O)C(OCc4cccc(Cl)c4)=CC3=O)c2cc1NC(=O)/C=C/CN(C)C`, the IC50 in experiment [1] worked out at 80.2 nM; in experiment [2] it was 179 nM; in experiment [3], 35.6 nM; in experiment [4], 12.2 nM.

With `CCOc1cc2ncnc(NC3=CC(=O)C(OCc4cccs4)=CC3=O)c2cc1NC(=O)/C=C/CN(C)C`, the IC50 in experiment [1] was 76.2 nM; in experiment [2] it was 298 nM; in experiment [3], 295 nM; in experiment [4] it was 47.5 nM.

`COc1cc2ncnc(Nc3cccc(Br)c3)c2cc1OC`: the half-maximal inhibitory concentration (IC50) in experiment [1] was 1490 nM; in experiment [2], more than 10000 nM.

For `COCCOc1cc2ncnc(NC3=CC(=O)C(OCc4cccc(F)c4)=CC3=O)c2cc1OC`, the IC50 in experiment [1] is 46.1 nM; in experiment [2], 188 nM; in experiment [3] it was more than 10000 nM; in experiment [4] it was more than 10000 nM.

As for `CCOc1cc2ncnc(NC3=CC(=O)C(OCc4ccccn4)=CC3=O)c2cc1NC(=O)/C=C/CN(C)C`, the IC50 in experiment [1] worked out at 135 nM; in experiment [2], 1010 nM; in experiment [3] it was 792 nM; in experiment [4], 90.8 nM.

Turning to `CCOc1cc2ncnc(NC3=CC(=O)C(OC)=CC3=O)c2cc1NC(=O)/C=C/CN(C)C`, the IC50 in experiment [1] was 379 nM; in experiment [2], 1400 nM; in experiment [3], more than 10000 nM; in experiment [4], 799 nM.

Take `CCOc1cc2ncnc(NC3=CC(=O)C(OCc4cccc(F)c4)=CC3=O)c2cc1NC(=O)/C=C/CN(C)C`: the IC50 in experiment [1] amounted to 113 nM; in experiment [2], 348 nM; in experiment [3], 43.1 nM; in experiment [4] it was 4.1 nM.

For the molecule `CCOc1cc2ncc(C#N)c(Nc3ccc(OCc4ccccn4)c(Cl)c3)c2cc1NC(=O)/C=C/CN(C)C` [NERATINIB], the IC50 in experiment [1] was 858 nM; in experiment [2] it was more than 10000 nM.

Take `CCOc1cc2ncc(C#N)c(Nc3ccc(F)c(Cl)c3)c2cc1NC(=O)/C=C/CN(C)C` [PELITINIB]: the values for the IC50 in experiment [1] and in experiment [2] were 3130 nM and more than 10000 nM, respectively.

For orientation: IC50 means the concentration that gives 50% inhibition.

These data come from ChEMBL document CHEMBL1147965, “Dual irreversible kinase inhibitors: quinazoline-based inhibitors incorporating two independent reactive centers with each targeting different cysteine residues in the kinase domains of EGFR and VEGFR-2” (Bioorg Med Chem, 2007).
